In paper PMC10944868, “Synthesis, biological and computational evaluation of novel cyanomethyl vinyl ether derivatives” (Frontiers in Pharmacology, 2024):

Columns and labels:
Type in all cases: cell-based
[1] = test system: SKOV3 (human ovarian carcinoma); experiment: Cytotoxicity assay (CCK8), SKOV3; conditions: SK-OV-3, SKOV3 cells, 48 h
Protocol: (§1) Cells were cultured according to the supplier´s instructions (ATCC technologies, A-549 (CCL-185), BT-20 (HTB-19), SKOV3 (HTB-77), HCT116 (CCL-247), MRC5 (CCL-171). Cells were seeded in 96-well plates at a density of 2–2.5 × 10^3 cells per well and incubated overnight in 0.1 mL of media supplied with 10% Fetal Bovine Serum (Lonza) in 5% CO2 incubator at 37°C. On day 2, drugs were added and samples were incubated for 48 h. After treatment, 10 µL of cell counting kit-8 was added into each well for additional 2 h incubation at 37°C. The absorbance of each well was determined by an Automatic Elisa Reader System at 450 nm wavelength.

[2] = test system: BT20 (human breast carcinoma); experiment: Cytotoxicity assay (CCK8), BT20; conditions: BT20 cells
Protocol: as §1

[3] = test system: A549 (carcinomic human alveolar basal epithelial cells); experiment: Cytotoxicity assay (CCK8), A549; conditions: 48 h
Protocol: as §1

[4] = test system: HCT-116 (human colorectal carcinoma); experiment: Cytotoxicity assay (CCK8), HCT116; conditions: HCT116 cells, 48 h
Protocol: as §1

[5] = test system: MRC-5 (non-malignant lung fibroblasts); experiment: Cytotoxicity assay (CCK8), MRC5; conditions: Homo sapiens, MRC5 non-cancerous cells, 48 h
Protocol: as §1

Row | SMILES | IC50 [1] [µM] | IC50 ([2]; Homo sapiens, BT-20, 48 h) [µM] | IC50 [3] [µM] | IC50 [4] [µM] | IC50 [5] [µM] | IC50 ([2]; 48 h) [µM]
1 | CCC(C#N)O/C=C/C(=O)OC (stereo not shown) [Compound 1E] | 2.92 ± 0.28 | 7.07 ± 1.28 | > 50 | > 50 | > 50 | 
2 | CCC(C#N)O/C=C\C(=O)OC (stereo not shown) [Compound 1Z] | > 50 | > 50 | > 50 | > 50 | > 50 | 
3 | CCCCCCC(C#N)O/C=C/C(=O)OC (stereo not shown) [Compound 2E] | 41.6 ± 2.46 | 15.8 ± 2.9 | > 50 | > 50 | > 50 | 
4 | CCCCCCC(C#N)O/C=C\C(=O)OC (stereo not shown) [Compound 2Z] | > 50 | 17.3 ± 3.44 | > 50 | > 50 | > 50 | 
5 | CCCOC(=O)/C=C/OC(C#N)c1ccccc1 (stereo not shown) [Compound 3E, Propyl (E)-3-(cyano(phenyl)methoxy)acrylate] | > 50 |  | > 50 | > 50 | > 50 | 
6 | CCCOC(=O)/C=C\OC(C#N)c1ccccc1 (stereo not shown) [Compound 3Z, Propyl (Z)-3-(cyano(phenyl)methoxy)acrylate] | > 50 |  | > 50 | > 50 | > 50 | 
7 | CC(C)OC(=O)/C=C/OC(C#N)c1ccccc1 (stereo not shown) [Compound 4E, Isoropyl (E)-3-(cyano(phenyl)methoxy)acrylate] | > 50 |  | > 50 | > 50 | > 50 | 
8 | CC(C)OC(=O)/C=C\OC(C#N)c1ccccc1 (stereo not shown) [Compound 4Z, Isoropyl (Z)-3-(cyano(phenyl)methoxy)acrylate] | > 50 |  | > 50 | > 50 | > 50 | 
9 | COC(=O)/C=C/OC(C#N)c1ccccc1 (stereo not shown) [Compound 5E] | 3.84 ± 1.56 | 8.31 ± 1.26 | 18.9 ± 1.2 | > 50 | > 50 | 
10 | COC(=O)/C=C\OC(C#N)c1ccccc1 (stereo not shown) [Compound 5Z] | 29.8 ± 2.09 | 19.9 ± 3.42 | > 50 | > 50 | > 50 | 
11 | COC(=O)/C=C/OC(C#N)c1ccc(OC)cc1 (stereo not shown) [Compound 6E] | 12.4 ± 1.18 | 27.8 ± 5.31 | > 50 | > 50 | > 50 | 
12 | COC(=O)/C=C\OC(C#N)c1ccc(OC)cc1 (stereo not shown) [Compound 6Z] | 31.3 ± 4.42 | 12.6 ± 1.76 | > 50 | > 50 | > 50 | 
13 | COC(=O)/C=C/OC(C#N)c1ccc(C(F)(F)F)cc1 (stereo not shown) [Compound 7E] | 2.62 ± 0.53 | 10 ± 2.17 | 29.3 ± 1.1 | > 50 | > 50 | 
14 | COC(=O)/C=C\OC(C#N)c1ccc(C(F)(F)F)cc1 (stereo not shown) [Compound 7Z] | > 50 | > 50 | > 50 | > 50 | > 50 | 
15 | COC(=O)/C=C/OC(C#N)c1ccc(F)cc1 (stereo not shown) [Compound 8E] | > 50 |  | > 50 | > 50 | > 50 | 
16 | COC(=O)/C=C\OC(C#N)c1ccc(F)cc1 (stereo not shown) [Compound 8Z] | > 50 |  | > 50 | > 50 | > 50 | 
17 | COC(=O)/C=C/OC(C#N)c1ccc(C)cc1 (stereo not shown) [Compound 9E] | 8.08 ± 2.08 | 4.98 ± 2.77 | 21.4 ± 0.83 | > 50 | > 50 | 
18 | COC(=O)/C=C\OC(C#N)c1ccc(C)cc1 (stereo not shown) [Compound 9Z] | > 50 | 20.2 ± 3.78 | > 50 | > 50 | > 50 | 
19 | COC(=O)/C=C/OC(C#N)c1cccs1 (stereo not shown) [Compound 10E] | > 50 |  | > 50 | > 50 | > 50 | 
20 | COC(=O)/C=C\OC(C#N)c1cccs1 (stereo not shown) [Compound 10Z] | > 50 |  | > 50 | > 50 | > 50 | 
21 | COC(=O)/C=C/OC(C#N)c1cc2ccccc2c2ccccc12 (stereo not shown) [Compound 12E] | 7.35 ± 1.42 | 9.89 ± 0.25 | 9.89 ± 0.25 | 16.1 ± 1.2 | 14.4 ± 0.86 | 7 ± 1.96
22 | COC(=O)/C=C\OC(C#N)c1cc2ccccc2c2ccccc12 (stereo not shown) [Compound 12Z] | 11.9 ± 1.88 | 11.9 ± 1.1 | > 50 | > 50 | > 50 | 
